Experimental findings from ChEMBL document CHEMBL3124799, “Discovery of 1,3,4-oxidiazole scaffold compounds as inhibitors of superoxide dismutase expression” (Bioorg Med Chem Lett, 2014) are described below.

pIC50: −log10 of the molar value. Calls of active or inactive are those of the source. No cut-off for these calls is given here.

Data set [1] has as its system Fibroblast. Kind of data set: Inhibition of human SOD1 expressed in mouse fibroblasts after 48 hrs by ELISA relative to control. As to conditions: for pIC50: Mus musculus, Fibroblast, 48 h, read-out: IC50. Type of data set: functional, cell-based.
The subject of data set [2] is Mus musculus. Kind of data set: Reduction in SOD1 G93A mutant expression in cerebral cortex of mouse at 20 mg/kg, ip administered every alternate day for 26 days. Format: functional, organism-based. The arrangement: dose 20 mg/kg.
Data set [3] has as its system Mus musculus. Kind of data set: Reduction in SOD1 G93A mutant expression in brain stem of mouse at 20 mg/kg, ip administered every alternate day for 26 days. Type of data set: functional, organism-based. Also on record: dose 20 mg/kg.
Data set [4] relates to Mus musculus. Nature of the data set: Reduction in SOD1 G93A mutant expression in cerebellum of mouse at 20 mg/kg, ip administered every alternate day for 26 days. Type of data set: functional, organism-based. The arrangement: dose 20 mg/kg.
For data set [5], the system named is Mus musculus. Kind of data set: Reduction in SOD1 G93A mutant expression in spinal cord of mouse assessed as at 20 mg/kg, ip administered every alternate day for 26 days. Format: functional, organism-based. The arrangement: dose 20 mg/kg.
Data set [6] is described as follows: Drug uptake in serum of mouse expressing SOD1 G93A mutant at 20 mg/kg, ip after 24 hrs. The note with it: read-out: Drug uptake. Also on record: dose 20 mg/kg, route intraperitoneal. Type of data set: ADME, organism-based.
A short description of data set [7]: Drug uptake in spinal cord of mouse expressing SOD1 G93A mutant at 20 mg/kg, ip after 24 hrs. Type of data set: ADME, organism-based. The arrangement: dose 20 mg/kg, route intraperitoneal. The note with it: read-out: Drug uptake.
Data set [8] in a line: Drug uptake in brain of mouse expressing SOD1 G93A mutant at 20 mg/kg, ip after 24 hrs. The note with it: read-out: Drug uptake. Format: ADME, organism-based. Also on record: dose 20 mg/kg, route intraperitoneal.
Data set [9] is described as follows: Drug uptake in serum of mouse expressing SOD1 G93A mutant at 20 mg/kg, ip after 1 hr. Also on record: dose 20 mg/kg, route intraperitoneal. The note with it: read-out: Drug uptake. Format: ADME, organism-based.
Data set [10] in a line: Drug uptake in spinal cord of mouse expressing SOD1 G93A mutant at 20 mg/kg, ip after 1 hr. Format: ADME, organism-based. The arrangement: dose 20 mg/kg, route intraperitoneal. The note with it: read-out: Drug uptake.
The nature of data set [11]: Drug uptake in brain of mouse expressing SOD1 G93A mutant at 20 mg/kg, ip after 1 hr. The note with it: read-out: Drug uptake. Type of data set: ADME, organism-based. The arrangement: dose 20 mg/kg, route intraperitoneal.
Data set [12] deals with Fibroblast. Nature of the data set: Relative expression of human SOD1 expressed in mouse fibroblasts at 10 uM after 48 hrs by ELISA.
In data set [13] the test system is Fibroblast. Nature of the data set: Inhibition of human SOD1 expressed in mouse fibroblasts at 10 uM after 48 hrs by ELISA relative to control. Type of data set: functional.
A short description of data set [14]: Drug uptake in serum of mouse expressing SOD1 G93A mutant at 10 mg/kg, ip after 4 hrs. Format: ADME, organism-based. Also on record: dose 10 mg/kg, route intraperitoneal. As to conditions: read-out: Drug uptake.
A short description of data set [15]: Drug uptake in brain of mouse expressing SOD1 G93A mutant at 10 mg/kg, ip after 2 hrs. The note with it: read-out: Drug uptake. Format: ADME, organism-based. The arrangement: dose 10 mg/kg, route intraperitoneal.
A short description of data set [16]: Drug uptake in spinal cord of mouse expressing SOD1 G93A mutant at 10 mg/kg, ip after 2 hrs. Format: ADME, organism-based. The arrangement: dose 10 mg/kg, route intraperitoneal. The note with it: read-out: Drug uptake.
The nature of data set [17]: Drug uptake in serum of mouse expressing SOD1 G93A mutant at 10 mg/kg, ip after 2 hrs. Type of data set: ADME, organism-based. The arrangement: dose 10 mg/kg, route intraperitoneal. As to conditions: read-out: Drug uptake.
A short description of data set [18]: Drug uptake in brain of nontransgenic mouse at 10 mg/kg, ip after 4 hrs.
Another data set deals with Brain. Nature of the data set: Drug uptake in brain of nontransgenic mouse at 10 mg/kg, ip after 24 hrs. As to conditions: in vivo.
Data set [19] can be described thus: Drug uptake in serum of nontransgenic mouse at 10 mg/kg, ip after 24 hrs.
Data set [20] is described as follows: Drug uptake in spinal cord of nontransgenic mouse at 10 mg/kg, ip after 4 hrs.
A short description of data set [21]: Drug uptake in spinal cord of nontransgenic mouse at 10 mg/kg, ip after 24 hrs.

In the case of `O=C1Cc2c([nH]c3ccc(Br)cc23)-c2ccccc2N1` [KENPAULLONE], the pIC50 in the data set on Fibroblast [1] was 5.00.

As for `Ic1cccc(CSc2nnc(-c3ccncc3)o2)c1`, the inhibition entry with Fibroblast [1] is “Dose-dependent effect”. Also, the negative-log IC50 (pIC50) in the data set on Fibroblast [1] is 6.20. Besides, the inhibition entry in the data set with Mus musculus [2], in the data set on Mus musculus [3], in the data set on Mus musculus [4] and in the data set with Mus musculus [5] was “Active” in each case. The results for the concentration at 24 h in [6], in [7] and in data set [8] were 73 nM, 855 nM and 77 nM, respectively. For the same compound, the concentration at 1 h in data set [9] was 672 nM; in data set [10], 4 µM; in data set [11], 944 nM.

As to `Ic1ccc(CSc2nnc(-c3ccncc3)o2)cc1`, in the data set on Fibroblast [12], the relative SOD1 expression at 10 µM worked out at 69%.

As to `COc1cccc(CSc2nnc(-c3ccncc3)o2)c1`, in the data set with Fibroblast [1], the inhibition result was “Dose-dependent effect”. The relative SOD1 expression at 10 µM in the data set on Fibroblast [12] worked out at 50%.

As for `O=C(CCl)c1cc(Br)c(Br)s1`, the pIC50 in the data set with Fibroblast [1] was 6.19.

For the compound `Cc1ccc(CSc2nnc(-c3ccncc3)o2)cc1`, the relative SOD1 expression at 10 µM in the data set with Fibroblast [12] is 126%.

Regarding `c1cc(CSc2nnc(-c3ccncc3)o2)ccn1`, in the data set with Fibroblast [13], the inhibition result was “inactive”.

As to `Cn1cc(C2=C(c3ccc(Cl)cc3Cl)C(=O)NC2=O)c2ccccc21` [SB-216763], in the data set on Fibroblast [1], the negative logarithm of the IC50 (pIC50) was 5.52.

In turn, `O=[N+]([O-])c1cccc(CSc2nnc(-c3ccncc3)o2)c1` gave a relative SOD1 expression at 10 µM in the data set on Fibroblast [12] of 117%.

As for `CCCCc1c(-c2ccc(O)cc2)[nH]c2nccnc12` [ALOISINE A], in the data set with Fibroblast [1] (fibroblast), the IC50 entry is “Not Active”.

As for `O=[N+]([O-])c1ccc(CSc2nnc(-c3ccncc3)o2)cc1`, the relative SOD1 expression at 10 µM with Fibroblast [12] was determined as 102%.

As for `COc1ccc(CSc2nnc(-c3ccncc3)o2)cc1`, the inhibition entry with Fibroblast [1] is “Dose-dependent effect”. The concentration at 4 h in data set [14] amounted to 334 nM; in [18] it was 47 nM; in data set [20], 162 nM. For the same compound, the concentration at 2 h in data set [15] came out at 29 nM; in data set [16], 57 nM; in [17], 153 nM. In the data set with Brain, the Drug uptake entry is “Not Active”. Also, the concentration at 24 h in data set [19] was determined as 123 nM; in data set [21], 113 nM. Also, the relative SOD1 expression at 10 µM with Fibroblast [12] amounted to 47%.

As for `Brc1cccc(CSc2nnc(-c3ccncc3)o2)c1`, the relative SOD1 expression at 10 µM with Fibroblast [12] amounted to 91%.

Turning to `c1ccc(CSc2nnc(-c3ccncc3)o2)cc1`, the relative SOD1 expression at 10 µM in the data set with Fibroblast [12] was determined as 133%.

`Fc1ccc(CSc2nnc(-c3ccncc3)o2)cc1`: the relative SOD1 expression at 10 µM in the data set on Fibroblast [12] amounted to 86%.

On to `O=C1NC(=O)C(c2cn(CCCO)c3ncccc23)=C1c1cnccn1`, for which the negative logarithm of the IC50 (pIC50) in the data set on Fibroblast [1] was 5.00.

`Clc1ccc(CSc2nnc(-c3ccncc3)o2)cc1` displayed a relative SOD1 expression at 10 µM with Fibroblast [12] of 123%.

`FC(F)(F)c1ccc(CSc2nnc(-c3ccncc3)o2)cc1` registered a relative SOD1 expression at 10 µM in the data set on Fibroblast [12] of 157%.

Regarding `Clc1cccc(CSc2nnc(-c3ccncc3)o2)c1`, the relative SOD1 expression at 10 µM in the data set on Fibroblast [12] was found to be 96%.

In the data set on Fibroblast [12], `Brc1ccc(CSc2nnc(-c3cccnc3)o2)cc1` registered a relative SOD1 expression at 10 µM of 68.6%.

`Brc1ccc(CSc2nnc(-c3ccncc3)o2)cc1` had a relative SOD1 expression at 10 µM in the data set with Fibroblast [12] of 103%.

Regarding `c1cncc(CSc2nnc(-c3ccncc3)o2)c1`, the inhibition result with Fibroblast [13] was “inactive”.
